SMILES strings stand for the structures. Where a name gives a salt, the structure may show the parent alone.

For test [1], the system named is MDA-MB-231 breast cancer cell line. As to the kind of experiment: Cell viability assay (Cell Titer Glo), MDA-MB-231. The test is classed as cell-based. The note with it: Table 7a, breast cancer cell line, 72 hour incubation. The procedure: (§1) Materials: • Cell Lines (Treated according to ATCC guidelines) • Cell Titer Glo (Promega Cat #G7572) • DMSO • 96-well White Tissue Culture Treated Plates (Perkin Elmer Cat #60005680)
(§2) Cells were seeded in a white 96-well tissue culture treated plate at a density of 1500 cells in 90 μL of media per well and allowed to settle overnight. A ten point serial dilution of drugs was prepared at 10×concentration in media with the final assay concentrations starting at 30 μM, 10 μM, 3 μM, 1 μM, 0.3 μM . . . 0 μM. A dilution of DMSO was included as a control. The assay was set up by adding 10 μL of the corresponding drug to each well in duplicate, followed by a 72 hour incubation at 37° C., 5% CO2. Cell viability was quantified by adding 90 μL of Cell Titer Glo to each well and incubating at room temperature for 10 minutes. The reaction was quantified by measuring luminescence using the Envision Plate Reader. Data was analyzed using Graphpad Prism 7 software.

For another test, the target named is CDK7/CycH/MAT1 (Homo sapiens, UniProt P50613). In words: Kinase Glo (ADP-Glo) biochemical assay, CDK7. The note with it: CDK7/CycH/MAT1 40 ng, ATP 1 μM, 60 minutes at RT, luminescence. As for the experimental part:
Materials: • Assay Buffer: 50 mM HEPES, 3 mM MgCl2, 3 mM MnCl2, 1 mM DTT, 3 μM Na3VO4, pH 7.5 • Substrate RB • CTF Peptide (ProQinase #: 0040-0000-6) • Enzymes • CDK7/CycH/MAT1 (ProQinase #: 0366-0360-4) • ADP-Glo™ Assay (Promega #: V9101) • ATP: 10 mM • ADP-Glo™ Reagent • Kinase Detection Reagent • 384-well white assay plates
A ten point serial dilution of compound was prepared at 5X concentration in assay buffer with the final assay concentrations starting at 30 μM, 10 μM, 3 μM, 1 μM . . . 0 μM. Enzyme, substrate, and ATP were used at 40 ng, 200 ng (or 400 ng)* and 1 μM, respectively. The assay plate was set up by mixing the components in a total reaction volume of 10 μL per well. The plate was centrifuged gently for 10 seconds and incubated at room temperature (RT) for 60 minutes in the dark. The ADP-Glo Reagent and kinase detection reagent were added and incubated as recommended. The reaction was quantified by measuring luminescence on the Perkin Elmer Envision plate reader.

Test [2] has as its system HPAC pancreatic cancer cell line. As to the kind of experiment: Cell viability assay (Cell Titer Glo), HPAC. The format is cell-based. The note with it: Table 7a, pancreatic cancer cell line, 72 hour incubation. The procedure: as §1, §2
In test [3] the test system is A673 Ewingsarcoma cell line. In words: Cell viability assay (Cell Titer Glo), A673. The format is cell-based. The note with it: 72 hour incubation. The procedure: as §1, §2
In test [4] the test system is Kasumi1 leukemia cancer cell line. As to the kind of experiment: Cell viability assay (Cell Titer Glo), Kasumi1. The format is cell-based. The note with it: 72 hour incubation. As for the experimental part: as §1, §2
In test [5] the test system is MiaPaCa2 pancreatic cancer cell line. In words: Cell viability assay (Cell Titer Glo), MiaPaCa2. The note with it: Table 7a, pancreatic cancer cell line, 72 hour incubation. The test is classed as cell-based. As for the experimental part: as §1, §2
Test [6] relates to A2780 ovarian cancer cell line. As to the kind of experiment: Cell viability assay (Cell Titer Glo), A2780. The format is cell-based. The note with it: 72 hour incubation. As for the experimental part:
as §1, §2

Where [7] appears, read: Homo sapiens, Kasumi 1, Table 7a.

Sequence of CDK7/CycH/MAT1 (P50613 whole entry): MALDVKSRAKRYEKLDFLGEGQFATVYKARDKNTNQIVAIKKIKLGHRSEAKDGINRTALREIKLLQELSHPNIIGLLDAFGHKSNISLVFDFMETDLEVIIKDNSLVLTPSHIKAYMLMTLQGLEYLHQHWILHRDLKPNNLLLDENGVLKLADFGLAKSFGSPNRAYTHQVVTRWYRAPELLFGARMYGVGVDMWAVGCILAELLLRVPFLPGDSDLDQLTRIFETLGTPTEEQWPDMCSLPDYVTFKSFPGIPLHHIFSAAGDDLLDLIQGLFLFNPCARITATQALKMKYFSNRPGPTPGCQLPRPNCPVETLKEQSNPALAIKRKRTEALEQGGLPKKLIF
Sequence of CDK7/CycH/MAT1 (P51946 whole entry partner): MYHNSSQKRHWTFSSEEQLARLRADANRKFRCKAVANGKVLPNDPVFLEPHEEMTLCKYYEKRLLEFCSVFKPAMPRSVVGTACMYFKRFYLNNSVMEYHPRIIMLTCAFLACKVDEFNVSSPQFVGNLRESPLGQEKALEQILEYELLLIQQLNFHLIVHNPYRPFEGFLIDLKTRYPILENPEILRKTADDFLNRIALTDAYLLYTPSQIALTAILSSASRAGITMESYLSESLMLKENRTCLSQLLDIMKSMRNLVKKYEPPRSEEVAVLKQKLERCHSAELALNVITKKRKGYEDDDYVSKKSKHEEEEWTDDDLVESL
Sequence of CDK7/CycH/MAT1 (P51948 whole entry partner): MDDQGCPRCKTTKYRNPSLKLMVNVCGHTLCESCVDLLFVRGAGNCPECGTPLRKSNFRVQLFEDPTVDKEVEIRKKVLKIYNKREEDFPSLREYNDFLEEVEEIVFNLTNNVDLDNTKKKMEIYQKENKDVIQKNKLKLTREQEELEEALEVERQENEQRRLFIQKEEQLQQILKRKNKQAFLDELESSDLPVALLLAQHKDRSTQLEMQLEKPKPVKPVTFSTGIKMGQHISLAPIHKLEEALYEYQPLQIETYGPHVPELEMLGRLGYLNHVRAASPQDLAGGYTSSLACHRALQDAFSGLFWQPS

With `CC(C)c1cnc2c(N[C@@H](C)c3ccccc3)nc(SC3CCCNC3)cn12` (stereo partly drawn) [Compound 34, 3-isopropyl-N-((S)-1-phenylethyl)-6-(piperidin-3-ylthio)imidazo[1,2-α]pyrazin-8-amine hydrochloride], the IC50 in test [1] (Homo sapiens, MDA-MB-231) is more than 5 µM; on CDK7/CycH/MAT1, less than 100 nM; in test [2] (Homo sapiens, HPAC), 1 to 5 µM; in test [3] (Homo sapiens, A673, Table 7a), more than 5 µM; in test [4] (setting [7]), 1 to 5 µM; in test [5] (Homo sapiens, MIA PaCa-2), 1 to 5 µM. In test [6] (Homo sapiens, A2780, Table 7a), this compound came in with a half-inhibitory concentration (IC50) of 1 to 5 µM.
Take `COc1ccccc1CNc1cc(NC2CCNCC2)nn2c(C(C)C)cnc12` [Compound 40, 3-isopropyl-N8-(2-methoxybenzyl)-N6-(piperidin-4-yl)imidazo[1,2-b]pyridazine-6,8-diamine hydrochloride]: the IC50 in test [1] (Homo sapiens, MDA-MB-231) is 1 to 5 µM; on CDK7/CycH/MAT1 it was less than 100 nM; in test [2] (Homo sapiens, HPAC), 1 to 5 µM; in test [3] (Homo sapiens, A673, Table 7a), 1 to 5 µM; in test [4] (setting [7]), more than 5 µM; in test [5] (Homo sapiens, MIA PaCa-2) it was 1 to 5 µM. In test [6] (Homo sapiens, A2780, Table 7a), this compound showed an IC50 of 1 to 5 µM.
`c1ccc(CNc2cc(SC3CCCNC3)nn3c(C4CC4)cnc23)cc1` (centres unmarked) [Compound 23, N-benzyl-3-cyclopropyl-6-(piperidin-3-ylthio)imidazo[1,2-b]pyridazin-8-amine dihydrochloride salt]: the IC50 in test [1] is 1 to 5 µM; against CDK7/CycH/MAT1, less than 100 nM; in test [2], 1 to 5 µM; in test [3] (Table 7a) it was 1 to 5 µM; in test [4] (Table 7a), 1 to 5 µM; in test [5] it was 1 to 5 µM. Moreover, the IC50 in test [6] (Table 7a) lay within 1 to 5 µM.
`CC(C)c1cnc2c(NCc3ccccc3C(F)(F)F)cc(SC3CCNCC3)nn12` [Compound 53, 3-isopropyl-6-(piperidin-4-ylthio)-N-(2-(trifluoromethyl)benzyl)imidazo[1,2-b]pyridazin-8-amine hydrochloride]: the IC50 was 1 to 5 µM in test [1] (Homo sapiens, MDA-MB-231); less than 100 nM on CDK7/CycH/MAT1; less than 1 µM in test [2] (Homo sapiens, HPAC); less than 1 µM in test [5] (Homo sapiens, MIA PaCa-2); less than 1 µM in test [6] (Homo sapiens, A2780, Table 7a).
With `CC(C)c1cnc2c(NCc3ccccc3-n3cccn3)cc(SC3CCNCC3)nn12` [Compound 62, N-(2-(1H-pyrazol-1-yl)benzyl)-3-isopropyl-6-(piperidin-4-ylthio)imidazo[1,2-b]pyridazin-8-amine hydrochloride], the IC50 was less than 100 nM at CDK7/CycH/MAT1; 1 to 5 µM in test [2] (Homo sapiens, HPAC); 1 to 5 µM in test [3] (Homo sapiens, A673, Table 7a); less than 1 µM in test [4] (setting [7]); less than 1 µM in test [5] (Homo sapiens, MIA PaCa-2).
On to `COc1ccccc1CNc1cc(SC2CCNCC2)nn2c(C(C)C)cnc12` [Compound 35, hydrochloride], for which the IC50 in test [1] (Homo sapiens, MDA-MB-231) was 1 to 5 µM; against CDK7/CycH/MAT1, less than 100 nM; in test [2] (Homo sapiens, HPAC) it was less than 1 µM; in test [3] (Homo sapiens, A673, Table 7a) it was less than 1 µM; in test [4] (setting [7]), 1 to 5 µM; in test [5] (Homo sapiens, MIA PaCa-2), less than 1 µM. Besides, the IC50 in test [6] (Homo sapiens, A2780, Table 7a) was less than 1 µM.
Regarding `CC(C)c1cnc2c(NCc3ccccc3)cc(S[C@@H]3CCCNC3)nn12` (single isomer, unassigned) [Compound 41, hydrochloride], the IC50 in test [1] (Homo sapiens, MDA-MB-231) is 1 to 5 µM; against CDK7/CycH/MAT1, less than 100 nM; in test [2] (Homo sapiens, HPAC), 1 to 5 µM; in test [3] (Homo sapiens, A673, Table 7a), 1 to 5 µM; in test [5] (Homo sapiens, MIA PaCa-2), 1 to 5 µM; in test [6] (Homo sapiens, A2780, Table 7a), 1 to 5 µM.
Take `CC(C)c1cnc2c(NCc3ccccc3OC(F)(F)F)cc(SC3CCCNC3)nn12` (centres unmarked) [Compound 37, 3-isopropyl-6-(piperidin-3-ylthio)-N-(2-(trifluoromethoxy)benzyl)imidazo[1,2-b]pyridazin-8-amine]: the IC50 in test [1] (Homo sapiens, MDA-MB-231) is 1 to 5 µM; at CDK7/CycH/MAT1, less than 100 nM; in test [2] (Homo sapiens, HPAC), 1 to 5 µM; in test [3] (Homo sapiens, A673, Table 7a), 1 to 5 µM; in test [4] (setting [7]) it was 1 to 5 µM; in test [5] (Homo sapiens, MIA PaCa-2), 1 to 5 µM. The compound also had an IC50 in test [6] (Homo sapiens, A2780, Table 7a) of 1 to 5 µM.
With `CC(C)c1cnc2c(NCc3ccccc3OC(F)(F)F)cc(NC[C@H]3CNCCO3)nn12` [Compound 48, (R)-3-isopropyl-N6-(morpholin-2-ylmethyl)-N8-(2-(trifluoromethoxy)benzyl)imidazo[1,2-b]pyridazine-6,8-diamine hydrochloride], the IC50 in test [1] (Homo sapiens, MDA-MB-231) was 1 to 5 µM; against CDK7/CycH/MAT1 it was less than 100 nM; in test [2] (Homo sapiens, HPAC), 1 to 5 µM; in test [3] (Homo sapiens, A673, Table 7a), 1 to 5 µM; in test [4] (setting [7]), more than 5 µM; in test [5] (Homo sapiens, MIA PaCa-2), 1 to 5 µM. This compound also came in with a 50% inhibitory concentration (IC50) in test [6] (Homo sapiens, A2780, Table 7a) of 1 to 5 µM.
For the compound `CC(C)c1cnc2c(N[C@@H](C)c3ccccc3)cc(SC3CCNCC3)nn12` [Compound 24, (S)-3-isopropyl-N-(1-phenylethyl)-6-(piperidin-4-ylthio)imidazo[1,2-b]pyridazin-8-amine], the IC50 was 1 to 5 µM in test [1] (Homo sapiens, MDA-MB-231); less than 100 nM on CDK7/CycH/MAT1; 1 to 5 µM in test [2] (Homo sapiens, HPAC); 1 to 5 µM in test [3] (Homo sapiens, A673, Table 7a); 1 to 5 µM in test [4] (setting [7]); 1 to 5 µM in test [5] (Homo sapiens, MIA PaCa-2). The IC50 in test [6] (Homo sapiens, A2780, Table 7a) is less than 1 µM.
For the compound `c1ccc(CNc2cc(SC3CCCNC3)nn3c(C4CC4)cnc23)cc1` (centres unmarked) [Compound 22, N-benzyl-3-cyclopropyl-6-(piperidin-3-ylthio)imidazo[1,2-b]pyridazin-8-amine formate], the IC50 in test [1] (Homo sapiens, MDA-MB-231) was 1 to 5 µM; against CDK7/CycH/MAT1, less than 100 nM; in test [2] (Homo sapiens, HPAC) it was 1 to 5 µM; in test [3] (Homo sapiens, A673, Table 7a), 1 to 5 µM; in test [4] (setting [7]), 1 to 5 µM; in test [5] (Homo sapiens, MIA PaCa-2) it was 1 to 5 µM. Besides, in test [6] (Homo sapiens, A2780, Table 7a), the IC50 was in the range of 1 to 5 µM.
In the case of `CC(C)c1cnc2c(NCc3ccccc3OC(F)(F)F)cc(SC3CCNCC3)nn12` [Compound 33], the IC50 in test [1] (Homo sapiens, MDA-MB-231) is 1 to 5 µM; against CDK7/CycH/MAT1 it was less than 100 nM; in test [2] (Homo sapiens, HPAC), less than 1 µM; in test [3] (Homo sapiens, A673, Table 7a) it was less than 1 µM; in test [4] (setting [7]) it was 1 to 5 µM; in test [5] (Homo sapiens, MIA PaCa-2), less than 1 µM. The half-inhibitory concentration (IC50) in test [6] (Homo sapiens, A2780, Table 7a) is less than 1 µM.
For the compound `CC(C)c1cnc2c(NCc3ccccc3)nc(SC3CCCNC3)cn12` (stereo not drawn) [Compound 26, N-benzyl-3-isopropyl-6-(piperidin-3-ylthio)imidazo[1,2-α]pyrazin-8-amine formate salt], the IC50 in test [1] (Homo sapiens, MDA-MB-231) is more than 5 µM; against CDK7/CycH/MAT1, less than 100 nM; in test [2] (Homo sapiens, HPAC), 1 to 5 µM; in test [3] (Homo sapiens, A673, Table 7a), 1 to 5 µM; in test [4] (setting [7]) it was 1 to 5 µM; in test [5] (Homo sapiens, MIA PaCa-2), more than 5 µM. Moreover, in test [6] (Homo sapiens, A2780, Table 7a), the IC50 lay within 1 to 5 µM.
Turning to `COc1ccccc1CNc1nc(SC2CCNCC2)cn2c(C(C)C)cnc12` [Compound 51, 3-isopropyl-N-(2-methoxybenzyl)-6-(piperidin-4-ylthio)imidazo[1,2-a]pyrazin-8-amine formate], the IC50 was more than 5 µM in test [1] (Homo sapiens, MDA-MB-231); less than 100 nM on CDK7/CycH/MAT1; 1 to 5 µM in test [2] (Homo sapiens, HPAC); 1 to 5 µM in test [5] (Homo sapiens, MIA PaCa-2); 1 to 5 µM in test [6] (Homo sapiens, A2780, Table 7a).
`CC(C)c1cnc2c(NCc3ccccc3OC(F)F)cc(SC3CCNCC3)nn12` [Compound 66, N-(2-(difluoromethoxy)benzyl)-3-isopropyl-6-(piperidin-4-ylthio)imidazo[1,2-b]pyridazin-8-amine hydrochloride]: the IC50 is less than 100 nM at CDK7/CycH/MAT1; less than 1 µM in test [2] (Homo sapiens, HPAC); less than 1 µM in test [3] (Homo sapiens, A673, Table 7a); 1 to 5 µM in test [4] (setting [7]); less than 1 µM in test [5] (Homo sapiens, MIA PaCa-2).
Turning to `CC(C)c1cnc2c(NCc3ccccc3N(C)C)cc(SC3CCNCC3)nn12` [Compound 64, N-(2-(dimethylamino)benzyl)-3-isopropyl-6-(piperidin-4-ylthio)imidazo[1,2-b]pyridazin-8-amine hydrochloride], the half-maximal inhibitory concentration (IC50) is less than 100 nM on CDK7/CycH/MAT1; 1 to 5 µM in test [2] (Homo sapiens, HPAC); less than 1 µM in test [3] (Homo sapiens, A673, Table 7a); less than 1 µM in test [4] (setting [7]); less than 1 µM in test [5] (Homo sapiens, MIA PaCa-2).

The record behind these values is patent US20230348475A1, “IMIDAZOPYRIDAZINE AND IMIDAZOPYRAZINE COMPOUNDS AS INHIBITORS OF CDK7” (THE TRANSLATIONAL GENOMICS RESEARCH INSTITUTE, priority 2020, published 2023).
